Results from ChEMBL document CHEMBL1151310, “Inhibition of cAMP-phosphodiesterase by biflavones of Ginkgo biloba in rat adipose tissue” (J Nat Prod, 1998).

Key:
Format in all cases: tissue-based
Rattus norvegicus [1] = species: Rattus norvegicus; assay: Inhibition of PDE in Sprague-Dawley rat epididymal adipose tissue assessed as [14C]adenosine recovery at 0.05 to 3 ug/ml by liquid scintillation counting
Rattus norvegicus [2] = species: Rattus norvegicus; assay: Inhibition of PDE in Sprague-Dawley rat epididymal adipose tissue assessed as [14C]adenosine recovery at 100 uM by liquid scintillation counting
Rattus norvegicus [3] = species: Rattus norvegicus; assay: Inhibition of PDE in Sprague-Dawley rat epididymal adipose tissue assessed as [14C]adenosine recovery at 1 mM by liquid scintillation counting
Rattus norvegicus [4] = species: Rattus norvegicus; assay: Inhibition of PDE in Sprague-Dawley rat epididymal adipose tissue assessed as [14C]adenosine recovery at 200 uM by liquid scintillation counting
[5] = (§1) Inhibition of PDE in Sprague-Dawley rat epididymal adipose tissue assessed as [14C]adenosine recovery by liquid scintillation counting
Rattus norvegicus [6] = species: Rattus norvegicus; assay: as §1; conditions: dose or concentration not given here
Rattus norvegicus [7] = species: Rattus norvegicus; assay: Inhibition of PDE in Sprague-Dawley rat epididymal adipose tissue assessed as [14C]adenosine recovery at 3.6 uM by liquid scintillation counting

## COc1ccc(-c2cc(=O)c3c(O)cc(O)c(-c4cc(-c5cc(=O)c6c(O)cc(OC)cc6o5)ccc4OC)c3o2)cc1
Rattus norvegicus [1]
  inhibition: 10%

## COc1ccc(Cc2nccc3cc(OC)c(OC)cc23)cc1OC
Rattus norvegicus [2]
  inhibition: > 90%

## Cn1c(=O)c2[nH]cnc2n(C)c1=O
Rattus norvegicus [3]
  inhibition: > 90%

## O=c1c(O)c(-c2ccc(O)cc2)oc2cc(O)cc(O)c12
Rattus norvegicus [4]
  inhibition: > 90%

## O=c1cc(-c2ccc(O)c(-c3c(O)cc(O)c4c(=O)cc(-c5ccc(O)cc5)oc34)c2)oc2cc(O)cc(O)c12 [AMENTOFLAVONE]
[5]
  IC50: 270 nM
Rattus norvegicus [6]
  inhibition: 85%

## COc1ccc(-c2cc(=O)c3c(O)cc(O)cc3o2)cc1-c1c(O)cc(O)c2c(=O)cc(-c3ccc(O)cc3)oc12 [BILOBETIN]
[5]
  IC50: 360 nM
Rattus norvegicus [6]
  inhibition: 84%

## COc1cc(O)c2c(=O)cc(-c3ccc(O)c(-c4c(O)cc(O)c5c(=O)cc(-c6ccc(O)cc6)oc45)c3)oc2c1 [SEQUOIAFLAVONE]
Rattus norvegicus [7]
  inhibition: 94%
[5]
  IC50: 1010 nM
